Experimental data published in ChEMBL document CHEMBL1158891, “Chemical and biological investigation of the fungus Pulveroboletus ravenelii” (J Nat Prod, 2003).
≈ marks a conversion by molar mass, not a printed value.

What was measured:
[1] = Inhibition of 7,12-dimethylbenz[a]anthracene-induced preneoplastic lesions in BALB/c mouse mammary gland culture after 1 to 10 days; format: functional, tissue-based
[2] = target: Prostaglandin G/H synthase 1 (Homo sapiens, UniProt P23219); assay: Inhibition of COX1
[3] = target: T1, Prostaglandin G/H synthase 2 (Homo sapiens, UniProt P35354); assay: Inhibition of COX2
T1 sequence (P35354 whole entry): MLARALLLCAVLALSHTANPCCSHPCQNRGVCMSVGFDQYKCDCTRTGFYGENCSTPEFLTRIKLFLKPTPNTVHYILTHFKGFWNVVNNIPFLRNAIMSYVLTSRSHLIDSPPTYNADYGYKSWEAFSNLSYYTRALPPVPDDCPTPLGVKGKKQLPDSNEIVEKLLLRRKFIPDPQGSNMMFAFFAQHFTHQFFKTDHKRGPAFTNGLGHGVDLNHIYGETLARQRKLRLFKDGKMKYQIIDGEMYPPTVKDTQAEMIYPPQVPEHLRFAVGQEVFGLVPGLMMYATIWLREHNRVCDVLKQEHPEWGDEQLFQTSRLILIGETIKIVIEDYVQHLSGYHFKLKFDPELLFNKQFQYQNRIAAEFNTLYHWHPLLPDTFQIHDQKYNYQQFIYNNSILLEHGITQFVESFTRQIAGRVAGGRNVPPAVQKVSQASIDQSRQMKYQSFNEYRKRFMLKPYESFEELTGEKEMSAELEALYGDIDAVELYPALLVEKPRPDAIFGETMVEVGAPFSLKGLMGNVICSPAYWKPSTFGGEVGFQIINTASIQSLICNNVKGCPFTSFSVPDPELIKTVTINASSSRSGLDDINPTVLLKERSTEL

[4] = system: Staphylococcus aureus; assay: Antimicrobial activity against Staphylococcus aureus; format: functional, organism-based

Chain of Prostaglandin G/H synthase 1 (P23219 whole entry): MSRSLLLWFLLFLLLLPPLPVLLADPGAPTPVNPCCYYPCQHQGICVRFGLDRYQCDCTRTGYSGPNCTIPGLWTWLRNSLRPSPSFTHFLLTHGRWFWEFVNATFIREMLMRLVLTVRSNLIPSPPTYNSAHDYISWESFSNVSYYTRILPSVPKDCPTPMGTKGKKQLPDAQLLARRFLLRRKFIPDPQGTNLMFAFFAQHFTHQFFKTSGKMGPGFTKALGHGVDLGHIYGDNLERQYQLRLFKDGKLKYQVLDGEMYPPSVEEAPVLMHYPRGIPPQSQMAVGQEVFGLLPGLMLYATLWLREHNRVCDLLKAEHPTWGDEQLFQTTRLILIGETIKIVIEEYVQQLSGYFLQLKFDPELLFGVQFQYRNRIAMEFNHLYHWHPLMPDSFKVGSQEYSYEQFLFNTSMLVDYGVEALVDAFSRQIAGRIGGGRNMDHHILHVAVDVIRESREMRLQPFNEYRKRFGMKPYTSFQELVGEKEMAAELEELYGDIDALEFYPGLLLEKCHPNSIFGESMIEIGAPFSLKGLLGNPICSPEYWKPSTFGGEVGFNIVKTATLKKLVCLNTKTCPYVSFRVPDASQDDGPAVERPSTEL

| IC50 [1] [µg/mL] | IC50 [2] [µM] | IC50 [3] [µM] | IC50 [4] [µg/mL] | SMILES |
| --- | --- | --- | --- | --- |
| 6 (≈ 14.1 µM) | – | – | – | COC(=O)[C@@H](c1ccccc1)[C@@H](C1=C(O)/C(=C/c2ccccc2)OC1=O)c1ccccc1 [PULVERAVEN A] |
| 0.8 (≈ 1.88 µM) | > 234 | > 234 | – | COC(=O)[C@@H](c1ccccc1)[C@H](C1=C(O)/C(=C/c2ccccc2)OC1=O)c1ccccc1 [PULVERAVEN B] |
| > 10 | 676 | – | 20 (≈ 62.1 µM) | COC(=O)/C(=C1/OC(=O)C(c2ccccc2)=C1O)c1ccccc1 [VULPINIC ACID] |
